Experimental data taken from the kinase profiling compilation of Christmann-Franck et al. (2016).

How the values were obtained:
Assay in all cases: KINOMEscan competition binding
Settings in all cases: compound 10.0 µM
ADCK4 (human) = ADCK4 (human) (UniProt Q96D53)
AURKA (human) = AURKA (human) (UniProt O14965)
CAMK2D (human) = CAMK2D (human) (UniProt Q13557)
CAMK4 (human) = CAMK4 (human) (UniProt Q16566)
CDC2L2 (human) = CDC2L2 (human) (UniProt Q9UQ88)
CHEK1 (human) = CHEK1 (human) (UniProt O14757)
CHUK (human) = CHUK (human) (UniProt O15111)
CSNK1A1L (human) = CSNK1A1L (human) (UniProt Q8N752)
DCLK3 (human) = DCLK3 (human) (UniProt Q9C098)
EPHA1 (human) = EPHA1 (human) (UniProt P21709)
FLT4 (human) = FLT4 (human) (UniProt P35916)
HCK (human) = HCK (human) (UniProt P08631)
IGF1R (human) = IGF1R (human) (UniProt P08069)
INSRR (human) = INSRR (human) (UniProt P14616)
LTK (human) = LTK (human) (UniProt P29376)
MAP4K4 (human) = MAP4K4 (human) (UniProt O95819)
MAPK1 (human) = MAPK1 (human) (UniProt P28482)
MAPK10 (human) = MAPK10 (human) (UniProt P53779)
MAPK11 (human) = MAPK11 (human) (UniProt Q15759)
MAPK12 (human) = MAPK12 (human) (UniProt P53778)
MAPK8 (human) = MAPK8 (human) (UniProt P45983)
MINK1 (human) = MINK1 (human) (UniProt Q8N4C8)
MLTK (human) = MLTK (human) (UniProt Q9NYL2)
MST1R (human) = MST1R (human) (UniProt Q04912)
MYLK2 (human) = MYLK2 (human) (UniProt Q9H1R3)
PAK3 (human) = PAK3 (human) (UniProt O75914)
PAK7 (human) = PAK7 (human) (UniProt Q9P286)
PHKG2 (human) = PHKG2 (human) (UniProt P15735)
PIM3 (human) = PIM3 (human) (UniProt Q86V86)
PRKAA1 (human) = PRKAA1 (human) (UniProt Q13131)
PTK2B (human) = PTK2B (human) (UniProt Q14289)
PTK6 (human) = PTK6 (human) (UniProt Q13882)
SRMS (human) = SRMS (human) (UniProt Q9H3Y6)
SRPK2 (human) = SRPK2 (human) (UniProt P78362)
STK17B (human) = STK17B (human) (UniProt O94768)
STK32C (human) = STK32C (human) (UniProt Q86UX6)
TAOK1 (human) = TAOK1 (human) (UniProt Q7L7X3)
TNIK (human) = TNIK (human) (UniProt Q9UKE5)
TNK2 (human) = TNK2 (human) (UniProt Q07912)
ZAP70 (human) = ZAP70 (human) (UniProt P43403)

PHKG2 (human), sequence (P15735 whole entry, looked up): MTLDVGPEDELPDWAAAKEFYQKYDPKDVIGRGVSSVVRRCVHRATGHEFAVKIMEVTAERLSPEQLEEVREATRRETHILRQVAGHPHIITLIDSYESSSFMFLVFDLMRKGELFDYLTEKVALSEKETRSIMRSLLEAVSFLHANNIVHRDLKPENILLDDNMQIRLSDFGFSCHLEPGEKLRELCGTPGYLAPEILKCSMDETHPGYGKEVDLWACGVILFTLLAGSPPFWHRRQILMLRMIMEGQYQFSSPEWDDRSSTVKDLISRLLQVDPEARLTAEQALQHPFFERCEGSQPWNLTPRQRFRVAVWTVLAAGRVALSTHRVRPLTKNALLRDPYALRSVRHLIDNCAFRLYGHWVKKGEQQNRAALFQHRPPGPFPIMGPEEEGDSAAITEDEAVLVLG
MINK1 (human), sequence (Q8N4C8 whole entry, looked up): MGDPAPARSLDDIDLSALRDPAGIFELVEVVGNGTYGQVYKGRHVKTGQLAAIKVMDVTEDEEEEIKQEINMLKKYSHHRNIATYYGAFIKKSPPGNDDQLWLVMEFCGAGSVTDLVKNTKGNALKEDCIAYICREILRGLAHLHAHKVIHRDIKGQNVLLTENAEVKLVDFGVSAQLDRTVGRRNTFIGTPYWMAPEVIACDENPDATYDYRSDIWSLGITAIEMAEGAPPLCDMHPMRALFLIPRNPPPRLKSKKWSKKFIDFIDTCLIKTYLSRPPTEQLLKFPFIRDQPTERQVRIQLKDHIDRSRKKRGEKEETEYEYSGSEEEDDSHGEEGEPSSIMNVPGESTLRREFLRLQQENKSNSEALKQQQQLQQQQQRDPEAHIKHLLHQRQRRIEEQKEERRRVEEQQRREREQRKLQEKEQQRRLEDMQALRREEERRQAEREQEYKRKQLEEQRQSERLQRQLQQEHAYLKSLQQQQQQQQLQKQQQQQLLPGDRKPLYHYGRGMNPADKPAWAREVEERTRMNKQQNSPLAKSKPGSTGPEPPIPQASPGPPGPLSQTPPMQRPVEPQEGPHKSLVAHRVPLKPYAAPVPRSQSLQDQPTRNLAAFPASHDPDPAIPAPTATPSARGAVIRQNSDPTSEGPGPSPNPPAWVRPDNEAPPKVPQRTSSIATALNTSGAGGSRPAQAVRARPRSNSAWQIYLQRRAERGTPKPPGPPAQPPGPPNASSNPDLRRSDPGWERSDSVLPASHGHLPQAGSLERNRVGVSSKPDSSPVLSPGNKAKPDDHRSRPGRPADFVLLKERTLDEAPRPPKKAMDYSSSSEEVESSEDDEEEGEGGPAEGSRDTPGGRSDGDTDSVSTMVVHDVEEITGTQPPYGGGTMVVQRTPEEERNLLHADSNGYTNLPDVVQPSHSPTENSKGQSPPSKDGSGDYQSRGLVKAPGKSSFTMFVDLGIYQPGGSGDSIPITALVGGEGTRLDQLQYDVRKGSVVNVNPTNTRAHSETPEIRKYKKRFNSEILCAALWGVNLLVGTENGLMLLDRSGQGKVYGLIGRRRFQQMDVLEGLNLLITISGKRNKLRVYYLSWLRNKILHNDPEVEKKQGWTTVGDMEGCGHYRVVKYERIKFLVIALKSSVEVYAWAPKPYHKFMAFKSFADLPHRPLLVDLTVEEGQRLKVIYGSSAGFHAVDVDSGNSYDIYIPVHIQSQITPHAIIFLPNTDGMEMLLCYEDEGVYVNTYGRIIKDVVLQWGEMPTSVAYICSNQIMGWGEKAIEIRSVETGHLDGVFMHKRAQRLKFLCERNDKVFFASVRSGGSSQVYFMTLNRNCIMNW
INSRR (human), sequence (P14616 whole entry, looked up): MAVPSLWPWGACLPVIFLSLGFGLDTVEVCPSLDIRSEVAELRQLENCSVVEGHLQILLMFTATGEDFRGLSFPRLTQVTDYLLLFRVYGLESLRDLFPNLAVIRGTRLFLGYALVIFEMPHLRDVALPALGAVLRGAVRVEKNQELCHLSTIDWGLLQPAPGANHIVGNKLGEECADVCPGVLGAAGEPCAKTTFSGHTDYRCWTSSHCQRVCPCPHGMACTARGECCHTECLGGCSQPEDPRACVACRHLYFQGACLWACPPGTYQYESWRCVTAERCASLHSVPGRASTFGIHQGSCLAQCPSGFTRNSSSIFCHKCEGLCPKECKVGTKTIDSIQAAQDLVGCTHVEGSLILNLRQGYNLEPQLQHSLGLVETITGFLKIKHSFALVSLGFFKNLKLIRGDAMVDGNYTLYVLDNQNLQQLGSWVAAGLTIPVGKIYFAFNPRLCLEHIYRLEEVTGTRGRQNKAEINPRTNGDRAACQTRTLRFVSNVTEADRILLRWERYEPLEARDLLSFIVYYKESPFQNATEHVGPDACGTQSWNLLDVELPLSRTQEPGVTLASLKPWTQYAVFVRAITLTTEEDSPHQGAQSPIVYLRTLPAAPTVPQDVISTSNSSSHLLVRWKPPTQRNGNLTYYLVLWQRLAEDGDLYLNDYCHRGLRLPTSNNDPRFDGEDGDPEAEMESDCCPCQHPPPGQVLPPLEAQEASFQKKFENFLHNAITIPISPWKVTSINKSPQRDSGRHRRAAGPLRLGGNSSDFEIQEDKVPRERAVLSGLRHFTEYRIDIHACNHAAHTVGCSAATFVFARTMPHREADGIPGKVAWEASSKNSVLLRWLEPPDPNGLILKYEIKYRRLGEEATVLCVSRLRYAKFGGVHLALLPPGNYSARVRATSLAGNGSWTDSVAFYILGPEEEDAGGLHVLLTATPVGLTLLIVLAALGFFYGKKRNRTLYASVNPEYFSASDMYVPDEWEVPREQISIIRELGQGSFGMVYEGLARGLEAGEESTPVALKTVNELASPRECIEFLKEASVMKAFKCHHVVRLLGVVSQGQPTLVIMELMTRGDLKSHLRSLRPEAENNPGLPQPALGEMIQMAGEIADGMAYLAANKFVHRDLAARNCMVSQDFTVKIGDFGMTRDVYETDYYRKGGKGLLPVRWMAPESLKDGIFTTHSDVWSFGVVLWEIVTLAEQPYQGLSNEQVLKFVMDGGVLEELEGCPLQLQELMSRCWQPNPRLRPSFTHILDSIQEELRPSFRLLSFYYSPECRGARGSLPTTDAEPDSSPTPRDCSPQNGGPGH
MAPK8 (human), sequence (P45983 whole entry, looked up): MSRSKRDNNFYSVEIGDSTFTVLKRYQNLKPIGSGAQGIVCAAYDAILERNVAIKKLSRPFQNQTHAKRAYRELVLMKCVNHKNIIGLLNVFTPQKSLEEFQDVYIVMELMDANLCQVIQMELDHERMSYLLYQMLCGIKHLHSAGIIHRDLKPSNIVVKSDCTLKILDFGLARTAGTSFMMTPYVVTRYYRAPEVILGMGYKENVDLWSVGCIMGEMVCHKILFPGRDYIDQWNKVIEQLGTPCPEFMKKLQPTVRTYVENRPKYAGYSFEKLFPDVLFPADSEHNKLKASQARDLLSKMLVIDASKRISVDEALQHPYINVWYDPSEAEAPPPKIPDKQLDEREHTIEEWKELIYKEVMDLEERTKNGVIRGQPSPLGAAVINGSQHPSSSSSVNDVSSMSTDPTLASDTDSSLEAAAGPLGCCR
PTK6 (human), sequence (Q13882 whole entry, looked up): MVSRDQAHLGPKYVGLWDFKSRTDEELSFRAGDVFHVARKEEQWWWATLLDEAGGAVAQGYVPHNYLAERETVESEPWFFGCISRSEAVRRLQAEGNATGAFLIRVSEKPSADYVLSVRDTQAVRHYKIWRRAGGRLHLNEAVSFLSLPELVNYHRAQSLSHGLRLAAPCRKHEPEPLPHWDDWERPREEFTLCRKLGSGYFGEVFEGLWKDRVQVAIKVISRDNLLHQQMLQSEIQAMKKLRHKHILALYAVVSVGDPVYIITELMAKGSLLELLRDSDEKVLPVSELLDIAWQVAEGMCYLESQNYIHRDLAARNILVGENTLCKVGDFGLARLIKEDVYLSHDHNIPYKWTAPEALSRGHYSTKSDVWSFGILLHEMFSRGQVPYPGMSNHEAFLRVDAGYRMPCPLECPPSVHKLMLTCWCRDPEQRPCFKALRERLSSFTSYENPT
TNK2 (human), sequence (Q07912 whole entry, looked up): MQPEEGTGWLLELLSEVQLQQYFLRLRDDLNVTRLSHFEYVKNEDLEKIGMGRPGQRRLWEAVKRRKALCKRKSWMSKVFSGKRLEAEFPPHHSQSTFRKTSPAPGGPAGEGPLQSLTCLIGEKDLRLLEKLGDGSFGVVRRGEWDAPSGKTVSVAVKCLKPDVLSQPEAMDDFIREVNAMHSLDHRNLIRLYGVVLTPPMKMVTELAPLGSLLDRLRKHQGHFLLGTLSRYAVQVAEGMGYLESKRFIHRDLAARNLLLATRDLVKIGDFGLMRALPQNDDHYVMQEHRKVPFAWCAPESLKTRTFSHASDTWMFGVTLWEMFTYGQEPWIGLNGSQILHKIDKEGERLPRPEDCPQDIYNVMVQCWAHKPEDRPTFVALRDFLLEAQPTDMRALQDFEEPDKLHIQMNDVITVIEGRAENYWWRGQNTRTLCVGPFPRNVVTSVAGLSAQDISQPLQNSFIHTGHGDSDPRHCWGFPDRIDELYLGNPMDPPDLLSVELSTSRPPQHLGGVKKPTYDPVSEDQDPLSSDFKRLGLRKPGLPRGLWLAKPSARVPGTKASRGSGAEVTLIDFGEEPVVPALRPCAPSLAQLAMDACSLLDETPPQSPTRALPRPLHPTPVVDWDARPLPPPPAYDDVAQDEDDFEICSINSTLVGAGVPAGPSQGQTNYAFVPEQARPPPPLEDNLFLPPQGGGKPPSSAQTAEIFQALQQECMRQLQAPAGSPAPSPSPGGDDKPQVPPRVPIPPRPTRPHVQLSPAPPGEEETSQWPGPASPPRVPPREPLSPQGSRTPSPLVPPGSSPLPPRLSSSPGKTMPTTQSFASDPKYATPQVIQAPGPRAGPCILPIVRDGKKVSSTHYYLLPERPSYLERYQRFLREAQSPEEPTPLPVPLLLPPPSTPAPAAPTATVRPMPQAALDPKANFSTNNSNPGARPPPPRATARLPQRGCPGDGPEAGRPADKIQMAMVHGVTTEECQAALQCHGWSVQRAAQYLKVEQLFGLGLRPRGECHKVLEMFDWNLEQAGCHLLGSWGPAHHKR

SMILES | kinase still bound, per cent of control (ADCK4 (human)) [%] | kinase still bound, per cent of control (AURKA (human)) [%] | kinase still bound, per cent of control (CAMK2D (human)) [%] | kinase still bound, per cent of control (CAMK4 (human)) [%] | kinase still bound, per cent of control (CDC2L2 (human)) [%] | kinase still bound, per cent of control (CHEK1 (human)) [%] | kinase still bound, per cent of control (CHUK (human)) [%] | kinase still bound, per cent of control (CSNK1A1L (human)) [%] | kinase still bound, per cent of control (DCLK3 (human)) [%] | kinase still bound, per cent of control (EPHA1 (human)) [%] | kinase still bound, per cent of control (FLT4 (human)) [%] | kinase still bound, per cent of control (HCK (human)) [%] | kinase still bound, per cent of control (IGF1R (human)) [%] | kinase still bound, per cent of control (INSRR (human)) [%] | kinase still bound, per cent of control (LTK (human)) [%] | kinase still bound, per cent of control (MAP4K4 (human)) [%] | kinase still bound, per cent of control (MAPK1 (human)) [%] | kinase still bound, per cent of control (MAPK10 (human)) [%] | kinase still bound, per cent of control (MAPK11 (human)) [%] | kinase still bound, per cent of control (MAPK12 (human)) [%] | also measured
Cc1ccc(NC(=O)c2cccc(C(C)(C)C#N)c2)cc1Nc1ccc2ncn(C)c(=O)c2c1 | 100 | 100 | 100 | 100 | 5.4 | 84 | 72 | 100 | 100 | 10 | 0.15 | 3.1 | 95 | 100 | 100 | 10 | 100 | 73 | 0 | 45 | kinase still bound, per cent of control (MAPK8 (human)): 100%; kinase still bound, per cent of control (MINK1 (human)): 7.2%; kinase still bound, per cent of control (MLTK (human)): 6.5%; kinase still bound, per cent of control (MST1R (human)): 100%; kinase still bound, per cent of control (MYLK2 (human)): 100%; kinase still bound, per cent of control (PAK3 (human)): 81%; kinase still bound, per cent of control (PAK7 (human)): 100%; kinase still bound, per cent of control (PHKG2 (human)): 100%; kinase still bound, per cent of control (PIM3 (human)): 98%; kinase still bound, per cent of control (PRKAA1 (human)): 73%; kinase still bound, per cent of control (PTK2B (human)): 100%; kinase still bound, per cent of control (PTK6 (human)): 94%; kinase still bound, per cent of control (SRMS (human)): 7.4%; kinase still bound, per cent of control (SRPK2 (human)): 100%; kinase still bound, per cent of control (STK17B (human)): 100%; kinase still bound, per cent of control (STK32C (human)): 100%; kinase still bound, per cent of control (TAOK1 (human)): 91%; kinase still bound, per cent of control (TNIK (human)): 3.4%; kinase still bound, per cent of control (TNK2 (human)): 100%; kinase still bound, per cent of control (ZAP70 (human)): 100%
CC[C@@H]1C(=O)N(C)c2cnc(Nc3ccc(C(=O)NC4CCN(C)CC4)cc3OC)nc2N1C1CCCC1 | 100 | 100 | 100 | 100 | 100 | 100 | 100 | 100 | 100 | 100 | 100 | 100 | 100 | 100 | 24 | 100 | 100 | 100 | 100 | 100 | kinase still bound, per cent of control (MAPK8 (human)): 100%; kinase still bound, per cent of control (MINK1 (human)): 100%; kinase still bound, per cent of control (MLTK (human)): 100%; kinase still bound, per cent of control (MST1R (human)): 100%; kinase still bound, per cent of control (MYLK2 (human)): 100%; kinase still bound, per cent of control (PAK3 (human)): 100%; kinase still bound, per cent of control (PAK7 (human)): 100%; kinase still bound, per cent of control (PHKG2 (human)): 20%; kinase still bound, per cent of control (PIM3 (human)): 100%; kinase still bound, per cent of control (PRKAA1 (human)): 100%; kinase still bound, per cent of control (PTK2B (human)): 20%; kinase still bound, per cent of control (PTK6 (human)): 100%; kinase still bound, per cent of control (SRMS (human)): 100%; kinase still bound, per cent of control (SRPK2 (human)): 100%; kinase still bound, per cent of control (STK17B (human)): 100%; kinase still bound, per cent of control (STK32C (human)): 100%; kinase still bound, per cent of control (TAOK1 (human)): 100%; kinase still bound, per cent of control (TNIK (human)): 100%; kinase still bound, per cent of control (TNK2 (human)): 100%; kinase still bound, per cent of control (ZAP70 (human)): 100%
